Test [1] concerns the target GDP-bound NRAS wild-type protein (Homo sapiens, UniProt P01111). As to the kind of experiment: Binding to NRAS by surface plasmon resonance (SPR), Single Cycle Kinetics. To be noted: SPR, GDP-bound NRAS wild-type protein vs GDP-bound KRAS wild-type protein. Background: In SPR one partner is held on a chip, and binding of the other changes the refractive index at the surface.

Test [2] has as its target GDP-bound HRAS wild-type protein (Homo sapiens, UniProt P01112). As to the kind of experiment: Binding to HRAS by surface plasmon resonance (SPR), Single Cycle Kinetics. As to conditions: SPR, GDP-bound HRAS wild-type protein vs GDP-bound KRAS wild-type protein.

Sequence of GDP-bound NRAS wild-type protein (P01111 whole entry): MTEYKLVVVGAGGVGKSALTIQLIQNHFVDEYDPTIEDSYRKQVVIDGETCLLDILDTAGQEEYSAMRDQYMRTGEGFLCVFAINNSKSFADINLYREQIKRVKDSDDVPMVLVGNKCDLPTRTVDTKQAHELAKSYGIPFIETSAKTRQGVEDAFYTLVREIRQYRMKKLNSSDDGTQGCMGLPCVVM
Sequence of GDP-bound HRAS wild-type protein (P01112 whole entry): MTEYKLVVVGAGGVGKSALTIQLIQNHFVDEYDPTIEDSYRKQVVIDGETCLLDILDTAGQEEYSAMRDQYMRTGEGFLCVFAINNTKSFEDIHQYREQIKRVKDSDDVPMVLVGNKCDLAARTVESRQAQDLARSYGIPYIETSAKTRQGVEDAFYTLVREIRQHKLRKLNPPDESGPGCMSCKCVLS

`CCC[C@H]1C(=O)N[C@@H](C2CCCC2)C(=O)N(C)CC(=O)N(C)[C@H]2C/C=C\CCN(C2=O)[C@@H](Cc2ccc(C)cc2)C(=O)N(C)CC(=O)N[C@@H](CCc2ccc(C(F)(F)F)c(Cl)c2)C(=O)N2C[C@H](OCC)C[C@H]2C(=O)NC2(CC(C)(C)C2)C(=O)N(C)[C@@H](CC(C)C)C(=O)N(C)[C@H](C(=O)N(C)C)CC(=O)N1C` [PP2190]: in test [1], the “NRAS/KRAS (ratio of KD value for NRAS to KD value for KRAS)” value was “A (a compound having 10 or more and less than 20 is denoted as A)”. The “HRAS/KRAS (ratio of KD value for HRAS to KD value for KRAS)” value in test [2] is “A (a compound having 10 or more and less than 20 is denoted as A)”.
Take `CC[C@@H]1C[C@H]2C(=O)NC3(CCCC3)C(=O)N(C)[C@@H](C3CCCC3)C(=O)N(C)[C@H](C(=O)N(C)C)CC(=O)N(C)[C@@H](CC(C)C)C(=O)N[C@@H]([C@@H](C)CC)C(=O)N(C)CC(=O)N(C)[C@H]3C/C=C\CCN(C3=O)[C@@H](Cc3ccc(C)cc3)C(=O)N(C)CC(=O)N[C@@H](CCc3cc(F)c(C(F)(F)F)c(F)c3)C(=O)N2C1` [PP2191]: the “NRAS/KRAS (ratio of KD value for NRAS to KD value for KRAS)” value in test [1] was “A (a compound having 10 or more and less than 20 is denoted as A)”. In addition, in test [2], the “HRAS/KRAS (ratio of KD value for HRAS to KD value for KRAS)” value is “B (a compound having 3 or more and less than 10 is denoted as B)”.
Turning to `CCC[C@H]1C(=O)N[C@@H](C2CCCC2)C(=O)N(C)CC(=O)N(C)[C@H]2C/C=C\CCN(C2=O)[C@@H](Cc2ccc(C)cc2)C(=O)N(C)CC(=O)N[C@@H](CCc2ccc(C(F)(F)F)c(Cl)c2)C(=O)N2C[C@H](OCC)C[C@H]2C(=O)NC2(CC(C)(C)C2)C(=O)N(C)[C@@H](CC(F)(F)F)C(=O)N(C)[C@H](C(=O)N(C)C)CC(=O)N1C` [PP2192], in test [1], the “NRAS/KRAS (ratio of KD value for NRAS to KD value for KRAS)” value was “A (a compound having 10 or more and less than 20 is denoted as A)”. Further, the “HRAS/KRAS (ratio of KD value for HRAS to KD value for KRAS)” value in test [2] was “A (a compound having 10 or more and less than 20 is denoted as A)”.
As to `CCC[C@@H]1C[C@H]2C(=O)NC3(CCCC3)C(=O)N(C)[C@@H](C3CCCC3)C(=O)N(C)[C@H](C(=O)N(C)C)CC(=O)N(C)[C@@H](CC(C)C)C(=O)N[C@@H]([C@@H](C)CC)C(=O)N(C)CC(=O)N(C)[C@H]3C/C=C\CCN(C3=O)[C@@H](Cc3ccc(C)cc3)C(=O)N(C)CC(=O)N[C@@H](CCc3cc(F)c(C(F)(F)F)c(F)c3)C(=O)N2C1` [PP2193], the “NRAS/KRAS (ratio of KD value for NRAS to KD value for KRAS)” value in test [1] was “A (a compound having 10 or more and less than 20 is denoted as A)”. For the same compound, the “HRAS/KRAS (ratio of KD value for HRAS to KD value for KRAS)” value in test [2] is “A (a compound having 10 or more and less than 20 is denoted as A)”.
On to `CCC[C@H]1C(=O)N[C@@H](C(CC)CC)C(=O)N(C)CC(=O)N(C)[C@H]2C/C=C\CCN(C2=O)[C@@H](Cc2ccc(C)cc2)C(=O)N(C)CC(=O)N[C@@H](CCc2ccc(C(F)(F)F)c(Cl)c2)C(=O)N2C[C@H](OCC)C[C@H]2C(=O)NC2(CC(C)(C)C2)C(=O)N(C)[C@@H](CC(C)C)C(=O)N(C)[C@H](C(=O)N(C)C)CC(=O)N1C` [PP2202], for which, in test [1], the “NRAS/KRAS (ratio of KD value for NRAS to KD value for KRAS)” value is “A (a compound having 10 or more and less than 20 is denoted as A)”. For the same compound, the “HRAS/KRAS (ratio of KD value for HRAS to KD value for KRAS)” value in test [2] was “A (a compound having 10 or more and less than 20 is denoted as A)”.
As for `CCCOC[C@H]1C(=O)N[C@@H]([C@@H](C)CC)C(=O)N(C)CC(=O)N(C)[C@H]2C/C=C\CCN(C2=O)[C@@H](Cc2ccc(C)cc2)C(=O)N(C)CC(=O)N[C@@H](CCc2cc(F)c(C(F)(F)F)c(F)c2)C(=O)N2C[C@H](CCC)C[C@H]2C(=O)NC2(CC(C)(C)C2)C(=O)N(C)[C@@H](C2CCCC2)C(=O)N(C)[C@H](C(=O)N(C)C)CC(=O)N1C` [PP2203], the “NRAS/KRAS (ratio of KD value for NRAS to KD value for KRAS)” value in test [1] is “A (a compound having 10 or more and less than 20 is denoted as A)”. Also, the “HRAS/KRAS (ratio of KD value for HRAS to KD value for KRAS)” value in test [2] is “A (a compound having 10 or more and less than 20 is denoted as A)”.
